Data from ChEMBL document CHEMBL3885881, “DrugMatrix”.

Species: Rattus norvegicus
Assay: DrugMatrix - Regimen: Daily Repeat
Assay type: toxicity, organism-based, Sprague-Dawley
Parameters: regimen Daily Repeat, gender Male, age 6-8 weeks
Settings: in vivo, po, 47 mg/kg, route oral GAVAGE, dose level Low, vehicle .5 % CMC; for ABSOLUTE BASOPHIL / ABSOLUTE EOSINOPHIL / ABSOLUTE LYMPHOCYTE / ABSOLUTE MONOCYTE / ABSOLUTE SEGMENTED NEUTROPHIL / BASOPHIL / EOSINOPHIL / ERYTHROCYTE COUNT / HEMATOCRIT / HEMOGLOBIN / LEUKOCYTE COUNT / LYMPHOCYTE / MEAN CORPUSCULAR HEMOGLOBIN / MEAN CORPUSCULAR HEMOGLOBIN CONCENTRATION / MEAN CORPUSCULAR VOLUME / MONOCYTE / NEUTROPHIL / NUCLEATED RED BLOOD CELLS / PLATELET COUNT: tissue Blood
[1] = 72 h, tissue Plasma, time 3 day
[2] = 120 h, tissue Plasma, time 5 day

Question: Which “ABSOLUTE BASOPHIL” value (72 h, time 3 day) does the source give for `OCCOCCN1CCN(C2=Nc3ccccc3Sc3ccccc32)CC1` [QUETIAPINE] here?
Answer: 0 CELLS/uL

Question: What about the “ABSOLUTE EOSINOPHIL” value (72 h, time 3 day) of the same compound?
Answer: 0 CELLS/uL

Question: And the “ABSOLUTE LYMPHOCYTE” value (72 h, time 3 day)?
Answer: 7521.33 CELLS/uL

Question: What about the “ABSOLUTE MONOCYTE” value (72 h, time 3 day) of the same compound?
Answer: 22.33 CELLS/uL

Question: What about the “ABSOLUTE SEGMENTED NEUTROPHIL” value (72 h, time 3 day) of the same compound?
Answer: 789.67 CELLS/uL

Question: What about the BASOPHIL (72 h, time 3 day) of the same compound?
Answer: 0%

Question: And the EOSINOPHIL (72 h, time 3 day)?
Answer: 0%

Question: And the “ERYTHROCYTE COUNT” value (72 h, time 3 day)?
Answer: 5.57 x10E6/uL

Question: What about the HEMATOCRIT (72 h, time 3 day) of the same compound?
Answer: 34.3%

Question: And the HEMOGLOBIN (72 h, time 3 day)?
Answer: 13.87 G/DL

Question: What about the “LEUKOCYTE COUNT” value (72 h, time 3 day) of the same compound?
Answer: 8.33 x10E3/uL

Question: And the LYMPHOCYTE (72 h, time 3 day)?
Answer: 90.33%

Question: What about the “MEAN CORPUSCULAR HEMOGLOBIN” value (72 h, time 3 day) of the same compound?
Answer: 24.93 pg

Question: And the “MEAN CORPUSCULAR HEMOGLOBIN CONCENTRATION” value (72 h, time 3 day)?
Answer: 40.43 G/DL

Question: And the “MEAN CORPUSCULAR VOLUME” value (72 h, time 3 day)?
Answer: 61.7 fL

Question: What about the MONOCYTE (72 h, time 3 day) of the same compound?
Answer: 0.33%

Question: What about the NEUTROPHIL (72 h, time 3 day) of the same compound?
Answer: 9.33%

Question: What about the “NUCLEATED RED BLOOD CELLS” value (72 h, time 3 day) of the same compound?
Answer: 0.33 /100WBC

Question: And the “PLATELET COUNT” value (72 h, time 3 day)?
Answer: 1115.67 x10E3/uL

Question: And the “ALANINE AMINOTRANSFERASE” value [1]?
Answer: 48.33 u/L

Question: What about the ALBUMIN [1] of the same compound?
Answer: 4.63 G/DL

Question: What about the “ASPARTATE AMINOTRANSFERASE” value [1] of the same compound?
Answer: 64.67 u/L

Question: What about the “BLOOD UREA NITROGEN” value [1] of the same compound?
Answer: 15.33 mg/dL

Question: What about the “CARBON DIOXIDE” value [1] of the same compound?
Answer: 31 mmol/L

Question: And the CHLORIDE [1]?
Answer: 101 MEQ/L

Question: What about the CHOLESTEROL [1] of the same compound?
Answer: 78.33 mg/dL

Question: What about the “CREATINE PHOSPHOKINASE” value [1] of the same compound?
Answer: 126.33 u/L

Question: And the CREATININE [1]?
Answer: 0.17 mg/dL

Question: And the GLUCOSE [1]?
Answer: 143.33 mg/dL

Question: What about the “LACTATE DEHYDROGENASE” value [1] of the same compound?
Answer: 116.33 u/L

Question: What about the LIPASE [1] of the same compound?
Answer: 12 u/L

Question: What about the POTASSIUM [1] of the same compound?
Answer: 6.23 MEQ/L

Question: And the SODIUM [1]?
Answer: 148.9 MEQ/L

Question: What about the “TOTAL BILIRUBIN” value [1] of the same compound?
Answer: 0.2 mg/dL

Question: And the “TOTAL PROTEIN” value [1]?
Answer: 6.03 G/DL

Question: And the “URIC ACID” value [1]?
Answer: 1.03 mg/dL

Question: What about the “ABSOLUTE BASOPHIL” value (120 h, time 5 day) of the same compound?
Answer: 0 CELLS/uL

Question: What about the “ABSOLUTE EOSINOPHIL” value (120 h, time 5 day) of the same compound?
Answer: 0 CELLS/uL

Question: What about the “ABSOLUTE LYMPHOCYTE” value (120 h, time 5 day) of the same compound?
Answer: 13853.67 CELLS/uL

Question: What about the “ABSOLUTE MONOCYTE” value (120 h, time 5 day) of the same compound?
Answer: 281 CELLS/uL

Question: And the “ABSOLUTE SEGMENTED NEUTROPHIL” value (120 h, time 5 day)?
Answer: 1032 CELLS/uL

Question: What about the BASOPHIL (120 h, time 5 day) of the same compound?
Answer: 0%

Question: What about the EOSINOPHIL (120 h, time 5 day) of the same compound?
Answer: 0%

Question: And the “ERYTHROCYTE COUNT” value (120 h, time 5 day)?
Answer: 6.08 x10E6/uL

Question: And the HEMATOCRIT (120 h, time 5 day)?
Answer: 38.03%

Question: And the HEMOGLOBIN (120 h, time 5 day)?
Answer: 15.07 G/DL

Question: What about the “LEUKOCYTE COUNT” value (120 h, time 5 day) of the same compound?
Answer: 15.17 x10E3/uL

Question: And the LYMPHOCYTE (120 h, time 5 day)?
Answer: 91.33%

Question: And the “MEAN CORPUSCULAR HEMOGLOBIN” value (120 h, time 5 day)?
Answer: 24.83 pg

Question: What about the “MEAN CORPUSCULAR HEMOGLOBIN CONCENTRATION” value (120 h, time 5 day) of the same compound?
Answer: 39.6 G/DL

Question: And the “MEAN CORPUSCULAR VOLUME” value (120 h, time 5 day)?
Answer: 62.6 fL

Question: And the MONOCYTE (120 h, time 5 day)?
Answer: 2%

Question: What about the NEUTROPHIL (120 h, time 5 day) of the same compound?
Answer: 6.67%

Question: What about the “NUCLEATED RED BLOOD CELLS” value (120 h, time 5 day) of the same compound?
Answer: 0 /100WBC

Question: What about the “PLATELET COUNT” value (120 h, time 5 day) of the same compound?
Answer: 1335.33 x10E3/uL

Question: What about the “ALANINE AMINOTRANSFERASE” value [2] of the same compound?
Answer: 39.33 u/L

Question: What about the ALBUMIN [2] of the same compound?
Answer: 4.63 G/DL

Question: And the “ASPARTATE AMINOTRANSFERASE” value [2]?
Answer: 90.67 u/L

Question: What about the “BLOOD UREA NITROGEN” value [2] of the same compound?
Answer: 20 mg/dL

Question: What about the “CARBON DIOXIDE” value [2] of the same compound?
Answer: 25 mmol/L

Question: What about the CHLORIDE [2] of the same compound?
Answer: 96.67 MEQ/L

Question: What about the CHOLESTEROL [2] of the same compound?
Answer: 61.33 mg/dL

Question: What about the “CREATINE PHOSPHOKINASE” value [2] of the same compound?
Answer: 403.67 u/L

Question: And the CREATININE [2]?
Answer: 0.22 mg/dL

Question: And the GLUCOSE [2]?
Answer: 148 mg/dL

Question: What about the “LACTATE DEHYDROGENASE” value [2] of the same compound?
Answer: 287 u/L

Question: And the LIPASE [2]?
Answer: 9.33 u/L

Question: And the POTASSIUM [2]?
Answer: 7.45 MEQ/L

Question: And the SODIUM [2]?
Answer: 142.07 MEQ/L

Question: What about the “TOTAL BILIRUBIN” value [2] of the same compound?
Answer: 0.13 mg/dL

Question: What about the “TOTAL PROTEIN” value [2] of the same compound?
Answer: 6.67 G/DL
